These results are taken from patent US20070203079A1, “Methods of using small molecule compounds for neuroprotection” (priority 2005, published 2007).

Counter-ions that a name gives are not always drawn.

Format in all cases: in vivo, C. elegans
Assay [1] concerns worms containing Punc-54::Q82::GFP+Punc-54::torsinA+Punc54::torsinA (ΔE). Description: Screen for reduction of polyglutamine protein aggregates in worms with wt and mutant torsinA. The conditions noted are these: differentiated by Q82::GFP lines without torsinA, with wt torsinA or with mutant torsinA. The method, then: C elegans nematodes were grown at 20° C. on NGM plates as described by Brenner (Brenner, Genetics, 1974, 77: 71-94). Several transgenic C. elegans lines were used for primary screens of the Prestwick small molecule library. A transgenic worm line expressing Punc-54::Q82-GFP; with both wild type (“wt”) (Punc=54: :torsinA) or mutant (Punc-54::torsinA(ΔE)). Torsin-A expresses a phenotype that results in visible protein aggregation under fluorescent microscope. Transgenic worms were plated on drug plates and progeny were studied for a return to soluble protein.
Drugs were administered to C. elegans according to a standard procedure (Rand and Johnson, Methods Cell Biol, 1995, 48: 187-204), by mixing the solubilized drug with the agar medium on which the worms are grown. This mode of administration allows the continuous exposure of worms to the drug.
Each drug was first dissolved in an appropriate solvent, followed by adding the drug solution into pre-autoclaved media, with the volume of drug solution already taken into account. […] Each plate was seeded with 100 μl concentrated E. coli OP50 bacteria.
The screening assays used to identify the compounds use protein aggregation readouts to determine the specificities of molecular action. […]
The methods for the aggregate analysis assay are described in Caldwell et al. (Hum Mol Genetics, 2003, 12(3): 307-319). […] MetaMorph Software (Universal Imaging Inc.) was used for pseudocoloration of images, image overlay, and aggregate size quantitation. For each worm line analyzed, average aggregate size was determined by capturing images of all aggregates in the posterior region of 30 L3-staged animals (for Q82::GFP aggregates) or all aggregates in 30 adult animals/day (for Q19::GFP analyses) at 1000× magnification. […]
To see the effect of the candidate compounds on suppressing protein misfolding and aggregation, five gravid adult worms were placed onto each drug plate and grown at 20° C. for approximately 3 days. Thirty Fl worms at L3 stage and young adult stage were counted for aggregate number.

Assay [2] relates to Pdat-1::GFP+Pdat-1::torsinA (ΔE) worms (mutant torsinA). The assay can be described thus: 6-OHDA dopaminergic neurodegeneration in worms with mutant torsinA. The method, then: C. elegans nematodes were grown at 25° C. on NGM plates as described by Brenner (Brenner, Genetics, 1974, 77: 71-94). Two transgenic C. elegans lines were used for primary screens of the Prestwick small molecule library. A transgenic worm line expressing Pdat-1::GFP; with both wild type (Pdat-1::torsinA) or mutant (Pdat-1:::torsinA(ΔE)). Torsin-A expresses a phenotype that results in visible neurodegeneration after treatment with 6-OHDA. Transgenic worms were plated on drug plates and progeny were studied for morphological changes in the 8 dopaminergic neurons present in C. elegans.
Drugs were administered to C. elegans according to a standard procedure (Rand and Johnson, Methods Cell Biol, 1995, 48: 187-204) by mixing the solubilized drug with the agar medium on which the worms are grown. […]
Age-synchronized worms were obtained by treating gravid adults with 2% sodium hypochlorite and 0.5M NaOH to isolate embryos (Lewis Fleming, 1995). […] The worms were then washed and spread onto NGM plates seeded with bacteria (OP50) and scored at time points ranging from 2 to 72 h after 6-OHDA exposure.
Immediately after 6-OHDA treatment, worms containing the transgenes were selected under a fluorescence dissecting microscope, based on the presence of GFP, and transferred to a fresh NGM plate seeded with OP50. […] For ease of analysis, only the four CEP DA neurons in the head of the worm were scored. […]

The subject of assay [3] is Pdat-1::GFP+Pdat-1::α-synuclein+Pdat-1::torsinA worms. Description: α-synuclein toxicity assay, wt torsinA. In outline: (§1)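 C. elegans lines expressing GFP and α-synuclein in dopamine neurons, with wild-type or ΔE torsinA, exposed to compounds; readout is the share of worms keeping all 4 wild-type CEP dopamine neurons as 4-day adults.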
Assay [4] has as its system Pdat-1::GFP+Pdat-1::α-synuclein+Pdat-1:: torsinA (ΔE) worms. The assay can be described thus: α-synuclein toxicity assay, mutant torsinA. In outline: as §1

Consider `C=N[C@@H](C(=O)N[C@@H]1C(=O)N2[C@@H]1SC(C)(C)[C@@H]2C(=O)O)c1ccccc1` [Compound 235, Metampicillin sodium salt], for which, in assay [1], the “Specificity in worm assay” value is given as “wt torsinA”. The “neuroprotection against 6-OHDA insult” value in assay [2] is listed as “not protected”. Also, the “enhanced wild type DA neuron survival” value in assay [3] is recorded as 30.3±7%. Moreover, the “enhanced DA neuron survival” value in assay [4] is reported as “no significant neuroprotection”.
